Data reported in patent EP4752140A1, “SPIROCYCLICALKENYL OR AZAALKENYL COMPOUND, AND PHARMACEUTICAL COMPOSITION THEREOF, PREPARATION METHOD THEREFOR AND USE THEREOF” (Shanghai Meiyue Biotech Development Co., Ltd., priority 2023, dated 2025).

Columns and labels:
[1] = tested on: normal human serum (NHS); assay: Complement-mediated hemolytic activity assay; type: cell-based; conditions: Erythrocyte, lysis of rabbit erythrocytes (RE) by NHS, GVB0 buffer with 10 mM Mg-EGTA, 37°C, read-out: Hemolysis IC50
Method: The hemolysis assay was performed with reference to the method described in Xuan Yuan et al., Haematologica. (2017) 102: 466-475. Prior to the assay, the optimal concentration of normal human serum (NHS) required to achieve 100% lysis of rabbit erythrocytes (RE) was determined by titration. In this assay, NHS (collected from healthy volunteers) was diluted in GVB^0 buffer containing 10 mM Mg-EGTA (0.1% gelatin, 5 mM Veronal, 145 mM NaCl, 0.025% NaN3, pH 7.3, Complement Technology) and incubated with various concentrations of test compounds at 37°C for 15 minutes. RE (collected from healthy Japanese white rabbits), freshly suspended in GVB^0 buffer containing 10 mM Mg-EGTA, were then added to achieve a final concentration of 1 × 10^8 cells/mL and incubated at 37°C for 30 minutes. The positive control group (100% lysis) consisted of GVB^0 buffer containing 10 mM Mg-EGTA with NHS and RE but without test compounds. The negative control group (0% lysis) consisted of GVB^0 buffer containing 10 mM Mg-EGTA with inactivated NHS (heated at 56°C for 30 minutes or 65°C for 5 minutes) and RE but without test compounds. After centrifugation of the samples at 2000 g for 5 minutes, the supernatant was collected. Absorbance at 415 nm (A415) was measured using a microplate reader (Molecular Devices, SpectraMax i3X). IC50 values were calculated by nonlinear regression from the percentage of hemolysis as a function of test compound concentration.

[2] = tested on: Alternative Pathway of the Human Serum Complement System; assay: Inhibitory effect on the alternative pathway of the human serum complement system (Wieslab kit); type: biochemical; conditions: complement activity, OD405, LPS-coated plate
Method: Test compounds were evaluated starting at a concentration of 10 µM, with 3-fold serial dilutions across 8 concentration points. The final concentration of DMSO was 0.1%, and all measurements were performed in duplicate. A vial of human serum (Complement Technology, NHS) was removed from a -80°C ultra-low temperature freezer and allowed to thaw completely on ice. […] The plate was gently mixed on a microplate thermoshaker and incubated at room temperature for 15 minutes. Subsequently, 100 µL of the above mixture was carefully transferred to the pre-coated (LPS-containing) plate provided in the kit (WIESLAB® Complement System Alternative Pathway, AP330RUO). Additionally, 100 µL of Diluent AP was used as a blank control to avoid bubble formation. The plate was incubated at 37°C for 65 minutes. After incubation, the liquid in the wells was discarded, and the plate was washed with 1× wash buffer (300 µL/well) four times, with the liquid being removed as thoroughly as possible from the plate after the final wash. 100 µL of conjugate was added to each well, and the plate was incubated at room temperature (20 to 25°C) for 30 minutes, followed by repetition of the washing step. 100 µL of substrate solution was then added to each well, and the plate was incubated at room temperature (20 to 25°C) for 30 minutes in the dark. The OD405 value was read immediately, or the reaction was terminated by addition of 5 mM EDTA, and the OD405 value was read within 60 minutes. Complement activity was calculated according to the formula: % complement activity = (Sample - NC) / (PC - NC) × 100, and data analysis was performed.

[3] = Single-dose PK study in rats; type: in vivo; conditions: male SD rats, oral gavage 3 mg/kg, plasma; for half-life: read-out: Half-life T1/2 (converted); for Cmax: read-out: Maximum plasma concentration Cmax
Method: (§1) Male SD rats (Shanghai Bikai Keyi Biotechnology Co. Ltd.) aged 6 to 9 weeks were fasted overnight. Three […] per group were administered the test compounds by oral gavage at a dosing volume of 10 mL/kg. Blood samples (0.2 mL per time point) were collected via the jugular vein into EDTA-K2 anticoagulant tubes and immediately centrifuged at 4000 rpm for 5 minutes at 4°C. The supernatants were collected. Blood samples were collected at the following time points: 15 minutes, 30 minutes, 1 hour, 2 hours, 4 hours, 7 hours, and 24 hours. The animals were continuously monitored for general condition after dosing. After completion of blood collection at all time points, the animals were euthanized. Plasma samples were analyzed by LC-MS/MS, and pharmacokinetic parameters were calculated using WinNonlin software.

[4] = Single-dose PK study in mice; conditions: mouse, in vivo, male ICR mice, oral gavage 10 mg/kg, plasma
Method: as §1, with “ICR mice” for “SD rats”, “Co.,” for “Co.”, “weighing approximately 25 g” for “aged 6 to 9 weeks”, “(30 µL” for “(0.2 mL”, “orbital sinus” for “jugular vein”

[5] = rat, read-out: Area under the curve AUC0-24h
[6] = rat, in vivo, read-out: Area under the curve AUC0-24h

Question: Which IC50 [1] does the source give for `COc1cc(C)c2[nH]ccc2c1CN1CC[C@H](C=C(F)F)C[C@H]1c1ccc(C(=O)O)c(O)c1` [Compound 40-P1] here?
Answer: 21.8 nM

Question: For `COc1cc(C)c2[nH]ccc2c1CN1CC[C@H](C=C2CC2)C[C@H]1c1ccc(C(=O)O)cc1` [Compound 41-P1], which IC50 [1] is on record?
Answer: 34.8 nM

Question: What does the source list for `COc1cc(C)c2[nH]ccc2c1CN1CC[C@H](C=C(F)F)C[C@H]1c1ccc(C(=O)O)cc1` [Compound 32-P1]?
Answer: IC50 [1]: 94.2 nM; IC50 [2]: 47.3 nM; AUC(0-t) at 24 h [3, 5]: 17600 ng·h/mL; half-life ([3]; rat): 13.2 h; Cmax ([3]; rat): 1290 ng/mL

Question: For `COc1cc(C)c2[nH]ccc2c1CN1CCC(=C(F)F)C[C@H]1c1ccc(C(=O)O)cc1` [Compound 19], which IC50 [1] is on record?
Answer: 2790 nM

Question: For `COc1cc(C)c2[nH]ccc2c1CN1CC[C@H](C=C(F)F)C[C@H]1c1ccc(C(=O)O)c(Cl)c1` [Compound 35-P1], which IC50 [1] is on record?
Answer: 61.5 nM

Question: With `Cc1cc(C2CC2)c(CN2CC[C@H](C=C(F)F)C[C@H]2c2ccc(C(=O)O)cc2)c2cc[nH]c12` [Compound 60-P1] as the compound, how does the IC50 [1] read?
Answer: 116 nM

Question: For `COc1cc(C)c2[nH]ccc2c1CN1CCC2(CC(=C(F)F)C2)C[C@H]1c1ccc(C(=O)O)cc1` (some centres unmarked) [Compound 1], which IC50 [1] is on record?
Answer: 86.2 nM

Question: And the IC50 [2]?
Answer: 53.2 nM

Question: And the AUC(0-t) at 24 h ([4]; read-out: Area under the curve AUC0-24h)?
Answer: 9230 ng·h/mL

Question: What about the half-life ([4]; read-out: Half-life T1/2 (converted)) of the same compound?
Answer: 13.1 h

Question: What about the Cmax ([4]; read-out: Maximum plasma concentration Cmax) of the same compound?
Answer: 1530 ng/mL

Question: And the AUC(0-t) at 24 h [3, 6]?
Answer: 8320 ng·h/mL

Question: And the half-life ([3]; rat, in vivo)?
Answer: 11.3 h

Question: And the Cmax ([3]; rat, in vivo)?
Answer: 720 ng/mL

Question: Which results are given for `[2H]C([2H])([2H])Oc1cc(C)c2[nH]ccc2c1CN1CC[C@H](C=C(F)F)C[C@H]1c1ccc(C(=O)O)cc1` [Compound 39-P1]?
Answer: IC50 [1]: 113 nM; AUC(0-t) at 24 h [3, 5]: 13300 ng·h/mL; half-life ([3]; rat): 9.44 h; Cmax ([3]; rat): 1280 ng/mL

Question: With `CCO[C@H]1CCN(Cc2c(OC)cc(C)c3[nH]ccc23)[C@H](c2ccc(C(=O)O)cc2)C1` [Comparative Example 1, reference compound] as the compound, how does the “Clearance CL” value [3] read?
Answer: 13.549 mL/min/kg

Question: And the AUC(0-t) [3, 5]?
Answer: 3660 ng·h/mL

Question: And the half-life ([3]; rat)?
Answer: 3.38 h

Question: And the Cmax ([3]; rat)?
Answer: 714 ng/mL

Question: For `Cc1cc(C)c2[nH]ccc2c1CN1CC[C@H](C=C(F)F)C[C@H]1c1ccc(C(=O)O)cc1` [Compound 37-P1], which IC50 [1] is on record?
Answer: 20.7 nM

Question: With `COc1cc([C@@H]2C[C@@H](C=C(F)F)CCN2Cc2c(OC)cc(C)c3[nH]ccc23)ccc1C(=O)O` [Compound 36-P1] as the compound, how does the IC50 [1] read?
Answer: 44 nM

Question: What about the AUC(0-t) at 24 h [3, 6] of the same compound?
Answer: 4500 ng·h/mL

Question: What about the half-life ([3]; rat, in vivo) of the same compound?
Answer: 8.29 h

Question: And the Cmax ([3]; rat, in vivo)?
Answer: 667 ng/mL

Question: For `COc1cc(Cl)c2[nH]ccc2c1CN1CC[C@H](C=C(F)F)C[C@H]1c1ccc(C(=O)O)cc1` [Compound 38-P1], which IC50 [1] is on record?
Answer: 139 nM

Question: Which IC50 [1] does the source give for `COc1cc(C)c2[nH]ccc2c1CN1CC[C@H](C=C(F)F)C[C@H]1c1ccc(C(=O)O)cc1C` (single isomer, unassigned) [Compound 33-P1] here?
Answer: 82.2 nM

Question: And the IC50 [2]?
Answer: 50.4 nM

Question: And the AUC(0-t) at 24 h [3, 6]?
Answer: 10700 ng·h/mL

Question: What about the half-life ([3]; rat, in vivo) of the same compound?
Answer: 11.2 h

Question: What about the Cmax ([3]; rat, in vivo) of the same compound?
Answer: 1240 ng/mL

Question: For `COc1cc(C)c2[nH]ccc2c1CN1CCC(C=C(F)F)C[C@H]1c1ccc(C(=O)O)cc1Cl` (some centres unmarked) [Compound 34-1], which IC50 [1] is on record?
Answer: 61.6 nM
